Measurements from PubChem BioAssay AID1963861 (Molecular Pharmacology Branch, DTP, NCI, 2024).

System: 885724-159-R-J1-PDC KRAS PDC multicell spheroid viability
Assay: Anticancer human tumor 885724-159-R-J1-PDC patient-derived pancreatic adenocarcinoma cell line growth inhibition [KRAS2]
Conditions: for IC50: curve of first compound; for viability, T/C: stronger effect = lower value
Summary of the method: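 Combination screen of spheroid viability in tumor-cell co-cultures with endothelial (HUVEC) and mesenchymal stem cell stroma. Each agent was tested in half-log dilutions, topping at clinical Cmax or at 10 microM without a known Cmax.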

[1] = second compound 0.1 µM, first compound 0.000316 µM
[2] = second compound 0.1 µM, first compound 0.001 µM
[3] = second compound 0.1 µM, first compound 0.00316 µM
[4] = second compound 0.1 µM, first compound 0.01 µM
[5] = second compound 0.1 µM, first compound 0.0316 µM
[6] = second compound 0.316 µM, first compound 0.000316 µM
[7] = second compound 0.316 µM, first compound 0.001 µM
[8] = second compound 0.316 µM, first compound 0.00316 µM
[9] = second compound 0.316 µM, first compound 0.01 µM
[10] = second compound 0.316 µM, first compound 0.0316 µM
[11] = second compound 1 µM, first compound 0.000316 µM
[12] = second compound 1 µM, first compound 0.001 µM
[13] = second compound 1 µM, first compound 0.00316 µM
[14] = second compound 1 µM, first compound 0.01 µM
[15] = second compound 1 µM, first compound 0.0316 µM
[16] = second compound 3.16 µM, first compound 0.000316 µM
[17] = second compound 3.16 µM, first compound 0.001 µM
[18] = second compound 3.16 µM, first compound 0.00316 µM
[19] = second compound 3.16 µM, first compound 0.01 µM
[20] = second compound 3.16 µM, first compound 0.0316 µM
[21] = second compound 10 µM, first compound 0.000316 µM
[22] = second compound 10 µM, first compound 0.001 µM
[23] = second compound 10 µM, first compound 0.00316 µM
[24] = second compound 10 µM, first compound 0.01 µM
[25] = second compound 10 µM, first compound 0.0316 µM
[26] = second compound 0.1 µM, first compound 0.1 µM
[27] = second compound 0.316 µM, first compound 0.1 µM
[28] = second compound 1 µM, first compound 0.1 µM
[29] = second compound 3.16 µM, first compound 0.1 µM
[30] = second compound 10 µM, first compound 0.1 µM
[31] = second compound 0.1 µM, first compound 0.316 µM
[32] = second compound 0.1 µM, first compound 1 µM
[33] = second compound 0.1 µM, first compound 3.16 µM
[34] = second compound 0.1 µM, first compound 10 µM
[35] = second compound 0.316 µM, first compound 0.316 µM
[36] = second compound 0.316 µM, first compound 1 µM
[37] = second compound 0.316 µM, first compound 3.16 µM
[38] = second compound 0.316 µM, first compound 10 µM
[39] = second compound 1 µM, first compound 0.316 µM
[40] = second compound 1 µM, first compound 1 µM
[41] = second compound 1 µM, first compound 3.16 µM
[42] = second compound 1 µM, first compound 10 µM
[43] = second compound 3.16 µM, first compound 0.316 µM
[44] = second compound 3.16 µM, first compound 1 µM
[45] = second compound 3.16 µM, first compound 3.16 µM
[46] = second compound 3.16 µM, first compound 10 µM
[47] = second compound 10 µM, first compound 0.316 µM
[48] = second compound 10 µM, first compound 1 µM
[49] = second compound 10 µM, first compound 3.16 µM
[50] = second compound 10 µM, first compound 10 µM
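Note: spheroids exposed to agents for 7 days before readout.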

CC(=O)Nc1cccc(-n2c(=O)n(C3CC3)c(=O)c3c(Nc4ccc(I)cc4F)n(C)c(=O)c(C)c32)c1 + CNCc1ccccc1-c1csc(C(C)Nc2nc(C)nc3cc(OC)c(OC)cc23)c1
IC50 (second compound 0.1 µM): 0.893 nM
IC50 (second compound 0.316 µM): 0.824 nM
IC50 (second compound 1 µM): 0.519 nM
IC50 (second compound 3.16 µM): < 0.1 nM
IC50 (second compound 10 µM): < 0.1 nM
viability, T/C (second compound 0.1 µM, first compound 0.0001 µM): 90.3%
viability, T/C [1]: 71.2%
viability, T/C [2]: 43.9%
viability, T/C [3]: 34.7%
viability, T/C [4]: 24.7%
viability, T/C [5]: 16.2%
viability, T/C (second compound 0.316 µM, first compound 0.0001 µM): 90.4%
viability, T/C [6]: 70.2%
viability, T/C [7]: 43.9%
viability, T/C [8]: 30.3%
viability, T/C [9]: 20.5%
viability, T/C [10]: 12.9%
viability, T/C (second compound 1 µM, first compound 0.0001 µM): 90.8%
viability, T/C [11]: 63.7%
viability, T/C [12]: 30.5%
viability, T/C [13]: 20.6%
viability, T/C [14]: 6.76%
viability, T/C [15]: 1.59%
viability, T/C (second compound 3.16 µM, first compound 0.0001 µM): 1.26%
viability, T/C [16]: 0.83%
viability, T/C [17]: 0.53%
viability, T/C [18]: 0.68%
viability, T/C [19]: 0.79%
viability, T/C [20]: 1.69%
viability, T/C (second compound 10 µM, first compound 0.0001 µM): 0.21%
viability, T/C [21]: 0.24%
viability, T/C [22]: 0.25%
viability, T/C [23]: 0.37%
viability, T/C [24]: 0.34%
viability, T/C [25]: 0.69%

CN(C)C/C=C/C(=O)Nc1cc2c(Nc3ccc(F)c(Cl)c3)ncnc2cc1O[C@H]1CCOC1 + CNCc1ccccc1-c1csc(C(C)Nc2nc(C)nc3cc(OC)c(OC)cc23)c1
IC50 (second compound 0.1 µM): > 100 nM
IC50 (second compound 0.316 µM): > 100 nM
IC50 (second compound 1 µM): > 100 nM
IC50 (second compound 3.16 µM): 2.35 nM
IC50 (second compound 10 µM): < 0.316 nM
viability, T/C [1]: 104%
viability, T/C [2]: 95.4%
viability, T/C [3]: 93.2%
viability, T/C [4]: 89.8%
viability, T/C [5]: 77.9%
viability, T/C [26]: 66.7%
viability, T/C [6]: 108%
viability, T/C [7]: 107%
viability, T/C [8]: 86.6%
viability, T/C [9]: 81.7%
viability, T/C [10]: 74%
viability, T/C [27]: 63.4%
viability, T/C [11]: 109%
viability, T/C [12]: 104%
viability, T/C [13]: 94.6%
viability, T/C [14]: 83.1%
viability, T/C [15]: 70.3%
viability, T/C [28]: 67.5%
viability, T/C [16]: 105%
viability, T/C [17]: 123%
viability, T/C [18]: 0.97%
viability, T/C [19]: 0.27%
viability, T/C [20]: 71.9%
viability, T/C [29]: 38%
viability, T/C [21]: 0.22%
viability, T/C [22]: 0.26%
viability, T/C [23]: 0.18%
viability, T/C [24]: 0.15%
viability, T/C [25]: 0.22%
viability, T/C [30]: 0.25%

COC(=O)c1ccc2c(C(=Nc3ccc(N(C)C(=O)CN4CCN(C)CC4)cc3)c3ccccc3)c(O)[nH]c2c1 + CNCc1ccccc1-c1csc(C(C)Nc2nc(C)nc3cc(OC)c(OC)cc23)c1
IC50 (second compound 0.1 µM): 2550 nM
IC50 (second compound 0.316 µM): 1860 nM
IC50 (second compound 1 µM): 2170 nM
IC50 (second compound 3.16 µM): < 31.6 nM
IC50 (second compound 10 µM): < 31.6 nM
viability, T/C [5]: 111%
viability, T/C [26]: 107%
viability, T/C [31]: 117%
viability, T/C [32]: 110%
viability, T/C [33]: 36.2%
viability, T/C [34]: 1.52%
viability, T/C [10]: 108%
viability, T/C [27]: 110%
viability, T/C [35]: 107%
viability, T/C [36]: 102%
viability, T/C [37]: 6.06%
viability, T/C [38]: 0.58%
viability, T/C [15]: 106%
viability, T/C [28]: 115%
viability, T/C [39]: 107%
viability, T/C [40]: 96.7%
viability, T/C [41]: 27.2%
viability, T/C [42]: 1.19%
viability, T/C [20]: 1.59%
viability, T/C [29]: 4.08%
viability, T/C [43]: 1.18%
viability, T/C [44]: 0.58%
viability, T/C [45]: 1.26%
viability, T/C [46]: 0.34%
viability, T/C [25]: 0.26%
viability, T/C [30]: 0.2%
viability, T/C [47]: 0.15%
viability, T/C [48]: 0.33%
viability, T/C [49]: 0.38%
viability, T/C [50]: 0.48%

O=C(c1cc(Cc2n[nH]c(=O)c3ccccc23)ccc1F)N1CCN(C(=O)C2CC2)CC1 + CNCc1ccccc1-c1csc(C(C)Nc2nc(C)nc3cc(OC)c(OC)cc23)c1
IC50 (second compound 0.1 µM): > 10000 nM
IC50 (second compound 0.316 µM): > 10000 nM
IC50 (second compound 1 µM): > 10000 nM
IC50 (second compound 3.16 µM): < 31.6 nM
IC50 (second compound 10 µM): < 31.6 nM
viability, T/C [5]: 110%
viability, T/C [26]: 112%
viability, T/C [31]: 98.4%
viability, T/C [32]: 101%
viability, T/C [33]: 96.2%
viability, T/C [34]: 84.7%
viability, T/C [10]: 107%
viability, T/C [27]: 107%
viability, T/C [35]: 103%
viability, T/C [36]: 96.4%
viability, T/C [37]: 94.6%
viability, T/C [38]: 81.7%
viability, T/C [15]: 105%
viability, T/C [28]: 112%
viability, T/C [39]: 104%
viability, T/C [40]: 95.7%
viability, T/C [41]: 91.9%
viability, T/C [42]: 81.8%
viability, T/C [20]: 1.34%
viability, T/C [29]: 1.56%
viability, T/C [43]: 0.78%
viability, T/C [44]: 0.88%
viability, T/C [45]: 1%
viability, T/C [46]: 1.09%
viability, T/C [25]: 0.23%
viability, T/C [30]: 0.26%
viability, T/C [47]: 0.21%
viability, T/C [48]: 0.28%
viability, T/C [49]: 0.28%
viability, T/C [50]: 0.68%
